#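 Dose response: 5 concentrations. Exposure: 48 h. Format: 96-well plates. Endpoint: linear interpolation; highest concentration if not reached. At the GI50, growth is halved. At the TGI there is no net growth.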
# Tests used:
# Experiment in all cases: growth of human tumour cells (NCI), 48 h
# TK-10 renal = test system: TK-10 renal
# M14 melanoma = test system: M14 melanoma
# HOP-62 NSCLC = test system: HOP-62 NSCLC
# A498 renal = test system: A498 renal
# SK-OV-3 ovarian = test system: SK-OV-3 ovarian
# BT-549 breast = test system: BT-549 breast
# SNB-19 CNS = test system: SNB-19 CNS
# DU-145 prostate = test system: DU-145 prostate
# SF-539 CNS = test system: SF-539 CNS
# MDA-MB-231 breast = test system: MDA-MB-231 breast
# SK-MEL-5 melanoma = test system: SK-MEL-5 melanoma
# SW-620 colon = test system: SW-620 colon
# UACC-62 melanoma = test system: UACC-62 melanoma
# IGROV1 ovarian = test system: IGROV1 ovarian
# SK-MEL-2 melanoma = test system: SK-MEL-2 melanoma
# HT29 colon = test system: HT29 colon
# SF-268 CNS = test system: SF-268 CNS
# A549 NSCLC = test system: A549 NSCLC
# T-47D breast = test system: T-47D breast
# SK-MEL-28 melanoma = test system: SK-MEL-28 melanoma
# PC-3 prostate = test system: PC-3 prostate
# ACHN renal = test system: ACHN renal
# SN12C renal = test system: SN12C renal
# SR leukemia = test system: SR leukemia
# CAKI-1 renal = test system: CAKI-1 renal
# OVCAR-8 ovarian = test system: OVCAR-8 ovarian
# CCRF-CEM leukemia = test system: CCRF-CEM leukemia
# UO-31 renal = test system: UO-31 renal
# OVCAR-3 ovarian = test system: OVCAR-3 ovarian
# MCF7 breast = test system: MCF7 breast
# RXF 393 renal = test system: RXF 393 renal
# 786-0 renal = test system: 786-0 renal
# RPMI-8226 leukemia = test system: RPMI-8226 leukemia
# LOX IMVI melanoma = test system: LOX IMVI melanoma
# NCI-H226 lung = test system: NCI-H226 lung
# NCI/ADR-RES ovarian = test system: NCI/ADR-RES ovarian
# OVCAR-4 ovarian = test system: OVCAR-4 ovarian
# HOP-92 NSCLC = test system: HOP-92 NSCLC
# UACC-257 melanoma = test system: UACC-257 melanoma
# NCI-H23 lung = test system: NCI-H23 lung
# OVCAR-5 ovarian = test system: OVCAR-5 ovarian
# COLO 205 colon = test system: COLO 205 colon
# HL-60(TB) leukemia = test system: HL-60(TB) leukemia
# HCC-2998 colon = test system: HCC-2998 colon
# MDA-MB-435 = test system: MDA-MB-435
# KM12 colon = test system: KM12 colon
# NCI-H460 lung = test system: NCI-H460 lung
# MOLT-4 leukemia = test system: MOLT-4 leukemia
# U251 CNS = test system: U251 CNS
# K-562 leukemia = test system: K-562 leukemia
# NCI-H522 lung = test system: NCI-H522 lung
# HS 578T breast = test system: HS 578T breast
# MALME-3M melanoma = test system: MALME-3M melanoma
smiles,measurement,setting,value
C=C1c2c(C)nn(-c3ccc(C#CCOC4OC(CO)C(O)C(O)C4O)cc3)c2N(C)C23C[C@H]1C1(C)c4c(C)nn(-c5ccc(C#CCOC6OC(CO)C(O)C(O)C6O)cc5)c4N(C)C(C)(C[C@H]12)C3 (stereo partly specified),GI50,TK-10 renal,2010 nM
same,TGI,TK-10 renal,4040 nM
same,GI50,M14 melanoma,1670 nM
same,TGI,M14 melanoma,3440 nM
same,GI50,HOP-62 NSCLC,1490 nM
same,TGI,HOP-62 NSCLC,2880 nM
same,GI50,A498 renal,1500 nM
same,TGI,A498 renal,3180 nM
same,GI50,SK-OV-3 ovarian,1720 nM
same,TGI,SK-OV-3 ovarian,3110 nM
same,GI50,BT-549 breast,1300 nM
same,TGI,BT-549 breast,2970 nM
same,GI50,SNB-19 CNS,1660 nM
same,TGI,SNB-19 CNS,3950 nM
same,GI50,DU-145 prostate,1970 nM
same,TGI,DU-145 prostate,5160 nM
same,GI50,SF-539 CNS,1780 nM
same,TGI,SF-539 CNS,3330 nM
same,GI50,MDA-MB-231 breast,1500 nM
same,TGI,MDA-MB-231 breast,3060 nM
same,GI50,SK-MEL-5 melanoma,1380 nM
same,TGI,SK-MEL-5 melanoma,2710 nM
same,GI50,SW-620 colon,1720 nM
same,TGI,SW-620 colon,3770 nM
same,GI50,UACC-62 melanoma,1220 nM
same,TGI,UACC-62 melanoma,2860 nM
same,GI50,IGROV1 ovarian,1560 nM
same,TGI,IGROV1 ovarian,3950 nM
same,GI50,SK-MEL-2 melanoma,1760 nM
same,TGI,SK-MEL-2 melanoma,3390 nM
same,GI50,HT29 colon,1630 nM
same,TGI,HT29 colon,4210 nM
same,GI50,SF-268 CNS,1750 nM
same,TGI,SF-268 CNS,3570 nM
same,GI50,A549 NSCLC,1680 nM
same,TGI,A549 NSCLC,4090 nM
same,GI50,T-47D breast,687 nM
same,TGI,T-47D breast,6800 nM
same,GI50,SK-MEL-28 melanoma,1900 nM
same,TGI,SK-MEL-28 melanoma,3520 nM
same,GI50,PC-3 prostate,702 nM
same,TGI,PC-3 prostate,2560 nM
same,GI50,ACHN renal,2420 nM
same,TGI,ACHN renal,10600 nM
same,GI50,SN12C renal,1380 nM
same,TGI,SN12C renal,3720 nM
same,GI50,SR leukemia,3280 nM
same,TGI,SR leukemia,> 100000 nM
same,GI50,CAKI-1 renal,2810 nM
same,TGI,CAKI-1 renal,11600 nM
same,GI50,OVCAR-8 ovarian,1000 nM
same,TGI,OVCAR-8 ovarian,3840 nM
same,GI50,CCRF-CEM leukemia,1040 nM
same,TGI,CCRF-CEM leukemia,5030 nM
same,GI50,UO-31 renal,2830 nM
same,TGI,UO-31 renal,10100 nM
same,GI50,OVCAR-3 ovarian,1520 nM
same,TGI,OVCAR-3 ovarian,3800 nM
same,GI50,MCF7 breast,1380 nM
same,TGI,MCF7 breast,3200 nM
same,GI50,RXF 393 renal,1620 nM
same,TGI,RXF 393 renal,3520 nM
same,GI50,786-0 renal,2660 nM
same,TGI,786-0 renal,7780 nM
same,GI50,RPMI-8226 leukemia,290 nM
same,TGI,RPMI-8226 leukemia,1720 nM
same,GI50,LOX IMVI melanoma,1370 nM
same,TGI,LOX IMVI melanoma,2790 nM
same,GI50,NCI-H226 lung,1620 nM
same,TGI,NCI-H226 lung,3700 nM
same,GI50,NCI/ADR-RES ovarian,5430 nM
same,TGI,NCI/ADR-RES ovarian,47000 nM
same,GI50,OVCAR-4 ovarian,1680 nM
same,TGI,OVCAR-4 ovarian,9940 nM
same,GI50,HOP-92 NSCLC,437 nM
same,TGI,HOP-92 NSCLC,2520 nM
same,GI50,UACC-257 melanoma,1820 nM
same,TGI,UACC-257 melanoma,4560 nM
same,GI50,NCI-H23 lung,2330 nM
same,TGI,NCI-H23 lung,6590 nM
same,GI50,OVCAR-5 ovarian,1780 nM
same,TGI,OVCAR-5 ovarian,3540 nM
same,GI50,COLO 205 colon,1470 nM
same,TGI,COLO 205 colon,2880 nM
same,GI50,HL-60(TB) leukemia,2070 nM
same,TGI,HL-60(TB) leukemia,4430 nM
same,GI50,HCC-2998 colon,1570 nM
same,TGI,HCC-2998 colon,3150 nM
same,GI50,MDA-MB-435,1670 nM
same,TGI,MDA-MB-435,3770 nM
same,GI50,KM12 colon,1440 nM
same,TGI,KM12 colon,2900 nM
same,GI50,NCI-H460 lung,1690 nM
same,TGI,NCI-H460 lung,3850 nM
same,GI50,MOLT-4 leukemia,1280 nM
same,TGI,MOLT-4 leukemia,3880 nM
same,GI50,U251 CNS,1190 nM
same,TGI,U251 CNS,2590 nM
same,GI50,K-562 leukemia,1890 nM
same,TGI,K-562 leukemia,6750 nM
same,GI50,NCI-H522 lung,1670 nM
same,TGI,NCI-H522 lung,3260 nM
same,GI50,HS 578T breast,472 nM
same,TGI,HS 578T breast,9850 nM
same,GI50,MALME-3M melanoma,1870 nM
same,TGI,MALME-3M melanoma,3660 nM
